From patent US20230033195A1, “METHODS AND COMPOSITIONS FOR IMPROVING COGNITIVE FUNCTION” (THE JOHNS HOPKINS UNIVERSITY, priority 2011, published 2023)

Key:
[1] = test system: memory-impaired aged rats; settings: cited from earlier work
[2] = aged rats, chronic subcutaneous 100 mg/kg/day; cited from earlier work
aged-impaired (AI) rats = assay: eight-arm Radial Arm Maze (RAM) task with one-hour delay, spatial memory retention; format: in vivo, rat

| Compound | performance in a memory test ([1]; chronic subcutaneous 100 mg/kg/day) | blood total valproate level [2] | treatment of cognitive impairment ([1]; chronic subcutaneous 50 mg/kg/day) | effective in reducing the number of errors, on its own (aged-impaired (AI) rats; valproate subcutaneous 25 mg/kg) | effective in reducing the number of errors, on its own (aged-impaired (AI) rats; valproate subcutaneous 50 mg/kg) | effective in reducing the number of errors, on its own (aged-impaired (AI) rats; valproate subcutaneous 100 mg/kg) |
| --- | --- | --- | --- | --- | --- | --- |
| CCCC(CCC)C(=O)[O-].[Na+] [sodium valproate] | significantly improved | 10 µg/ml plasma |  |  |  |  |
| CCCC(CCC)C(=O)O [valproate, 2-propylpentanoate] |  |  | not effective | not | not | effective |
